From patent US7354579B2, “Method of treating cancer with a VEGF antagonist and an anti-proliferative agent” (Regeneron Pharmaceuticals, Inc., priority 2003, dated 2008)

Tested on: OVCAR3 cells
Test: OVCAR3 i.p. tumor model in athymic nude mice: tumor burden and ascites after 4 weeks of treatment
Format: in vivo
Details: for % Reduction Ascites / % Reduction Tumor Burden: compared to controls; for % Reduction Ascites: ascites volume at end of 4 weeks of treatment; for % Reduction Tumor Burden: treatment for 4 weeks starting 2 weeks after i.p. inoculation, VEGF-Trap s.c. twice weekly, paclitaxel i.p. 3 times weekly; for Mice with tumors in the hilus of the liver / Mice with tumors on the diaphragm: end of experiment; for Ascites formation (in words): end of 4 weeks of treatment
Experimental: Experimental Design. Two experiments, each with 4 groups of female athymic nude mice (5-7 wks, 20 mice/experiment, total n=40) were inoculated i.p. with OVCAR3 cells. Two weeks after inoculation, 1 group was treated with VEGF-Trap s.c. twice weekly+paclitaxel i.p. 3 times weekly for 4 weeks. The second group was treated with VEGF-Trap alone. The third group was treated with paclitaxel alone. The remaining group was treated with vehicle. At the end of the experiments, the mice were euthanized, the volume of ascites was measured and all visible tumor was excised and weighed.

| Molecule | % Reduction Ascites | % Reduction Ascites (listed as Paclitaxel) | % Reduction Tumor Burden | % Reduction Tumor Burden (listed as paclitaxel) | Mice with tumors in the hilus of the liver | Mice with tumors on the diaphragm | % Reduction Tumor Burden (listed as VEGF-Trap) | Ascites formation (in words) (listed as VEGF trap) | Ascites formation (in words) (listed as VEGF-Trap) |
| --- | --- | --- | --- | --- | --- | --- | --- | --- | --- |
| CC(=O)O[C@H]1C(=O)[C@@]2(C)[C@H]([C@H](OC(=O)c3ccccc3)[C@]3(O)C[C@H](OC(=O)[C@H](O)[C@@H](NC(=O)c4ccccc4)c4ccccc4)C(C)=C1C3(C)C)[C@]1(OC(C)=O)CO[C@@H]1C[C@@H]2O [Taxol ™, paclitaxel, reference compound] | 85.4% | 85.5% | 55.9% | 54.8% | 60% | 80% |  |  |  |
| VEGF Trap: VEGF-receptor based trap antagonist VEGFR1R2-FcΔC1(a) (SEQ ID NOs: 1-2), capable of high affinity binding of VEGF | 96.5% |  | 56.7% |  | 60% | Ninety | 55.7% | no demonstrable ascites | Virtually no ascites developed |
